According to CN109475563A, “蛋白酶抑制剂的长效医药组合物” (Taimed Biologics Inc, priority 2016, dated 2017):

How the values were obtained:
[1] = Rat subcutaneous PK, microparticle vs nanosuspension of TMB-607; format: in vivo; conditions: SC
[2] = Dog PK, intramuscular vs subcutaneous nanosuspension of TMB-607; format: in vivo, beagle dog; conditions: Fig. 3
[3] = Monkey PK, nanosuspensions of different particle size; format: in vivo
[4] = PK of injectable nanosized TMB-607 (summary statement); format: in vivo; conditions: injectable formulation of nanosized TMB-607; species not stated
[5] = biological target: HIV-1 protease (HIV-1蛋白酶) (Human immunodeficiency virus type 1 group M subtype B, UniProt P04585); conditions: cited from earlier work
[6] = test system: laboratory-adapted virus (实验室适应病毒); conditions: 48-week in vitro selection, increasing TMB-607 concentration; cited from earlier work
[7] = test system: single mutations in the protease open reading frame (蛋白酶开放读框); conditions: in vitro, site-directed mutagenesis; cited from earlier work
[8] = male beagle dog, 60 mg/kg, particle size about 150 nm, 6 weeks

## COC(=O)N[C@H](C(=O)NCCCC[C@@H](CO)N(CC(C)C)S(=O)(=O)c1ccc(N)cc1)C(c1ccccc1)c1ccccc1 [TMB-607]
[1]; nano-sized TMB-607, printed as 247 nm, Fig. 2
  duration of plasma level above protein-binding-adjusted EC50: 14 days
[1]; nanosuspension printed as 247 nm, compared with microparticle 2470 nm, Fig. 2
  duration for which TMB-607 plasma level is maintained: > 14 days
[1]; microparticle 2470 nm, Fig. 2 (general description)
  plasma level above protein-binding-adjusted EC50 for 14 days (in words): 不能
[1]; rat, microparticle 2470 nm, 16.7 mg/kg
  Cmax in the initial period (in words): 引人注目的高Cmax
[1]; rat, microparticle 2470 nm, 16.7 mg/kg, Fig. 2
  plasma level above protein-binding-adjusted EC50 for 14 days (in words): 不能
[1]; rat, nanosuspension 240 nm, 23.5 mg/kg
  release profile (in words): 持续的释放曲线
[1]; rat, nanosuspension 240 nm, doses printed for microparticle and nanosuspension 16.7 and 23.5 mg/kg respectively, Fig. 2
  duration of plasma level above protein-binding-adjusted EC50: 14 days
[2]; [8]
  AUC0-t, SC versus IM (in words): 没有在AUC0-t值中观察到明显的差异
  Cmax, IM versus SC (in words): 肌肉给药路径的Cmax值高于皮下给药路径的Cmax值
[2]; single IM or SC injection of nanosuspension
  plasma level after single IM or SC injection (in words): 延长了TMB-607的血浆水平
[3]; 113 nm compared with 214 nm
  plasma level and duration of action, smaller particle size (in words): 较高的血浆水平和较长的作用时间
[3]; monkey, 60 mg/kg, 113 nm versus 214 nm, Fig. 4
  plasma level and duration of action, smaller particles (in words): 较高的血浆水平和较长的作用时间
[3]; monkey, injected nanosuspension, 60 mg/kg, 214 nm versus 113 nm, 4 weeks
  AUC0-t on reducing particle size (in words): AUC0-t和t1/2均大致增加
[3]; particle sizes 214 nm and 113 nm
  plasma level (in words): 都可以延长血浆水平
[4]
  duration of stable plasma levels: > 1 month
[5]
  inhibition of HIV-1 protease (potency, in words): 效用 and 有效
  selectivity in inhibiting HIV-1 protease (in words): 选择性 and 有选择性
[6]
  mutations selected in protease open reading frame: 四个突变
[7]
  resistance caused by single mutation (in words): 单一突变不会导致对TMB-607的明显抗药性
